Measurements taken from patent US4107188A, “Pregnanes” (Hoffmann-La Roche Inc., priority 1977, dated 1978).

Experiments:
rat pancreatic lipase = target: T1, rat pancreatic lipase (Rattus norvegicus, UniProt P27657); assay: Inhibition of rat pancreatic lipase activity in vitro; assay type: biochemical; conditions: 14C-triolein emulsion, pH 8.6, 20 min. at 37° C
T1 sequence (P27657 17-465): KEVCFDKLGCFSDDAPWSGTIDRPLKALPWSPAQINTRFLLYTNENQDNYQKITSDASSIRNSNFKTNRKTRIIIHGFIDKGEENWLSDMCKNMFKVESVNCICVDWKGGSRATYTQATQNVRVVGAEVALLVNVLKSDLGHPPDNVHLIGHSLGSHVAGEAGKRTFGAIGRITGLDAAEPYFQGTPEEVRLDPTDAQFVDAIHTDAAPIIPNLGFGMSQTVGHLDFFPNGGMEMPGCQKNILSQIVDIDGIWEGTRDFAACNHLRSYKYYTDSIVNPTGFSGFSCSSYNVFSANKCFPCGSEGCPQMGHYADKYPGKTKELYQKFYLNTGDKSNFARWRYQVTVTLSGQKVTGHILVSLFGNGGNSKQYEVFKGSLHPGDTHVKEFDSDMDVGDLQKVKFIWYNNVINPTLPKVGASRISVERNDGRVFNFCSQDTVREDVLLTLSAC
Procedure: Dietary long-chain triglycerides must be hydrolyzed by pancreatic lipase in the duodenum before absorption can occur. […] The capacity of compounds of formula I to inhibit rat pancreatic lipase in vitro is seen by the action of the following compounds:
The ability of compounds to inhibit rat pancreatic lipase is determined by analyzing the nmoles of free fatty acid [oleic acid] released from [^14 C]-triolein. Compounds of A and B are added to an emulsion consisting of: 200,000 dmp ^14 C-triolein, 7.5 mg triolein, 0.75 mg sodium taurocholate, 15 mg bovine serum albumin and 0.9 ml 0.2 M tris-HCl - 0.15 M NaCl, pH 8.6, per assay. Water and/or pancreatic lipase is added to make an assay volume of 1.0 ml. The emulsion is incubated for 20 min. at 37° C in a shaking water bath. The reaction is stopped by the addition of isopropanol; H2 SO4 (40:1). The lipids are extracted twice with 3 ml volumes of hexane. The liberated fatty acids are extracted with 2 ml of 0.1 N aqueous KOH in 50% methanol. A 1 ml aliquot of the KOH layer is paced in a scintillation vial with 10 ml of 2,5-bis-2-(5-tertiarybutyl benzoxazolyl)thiophene. The radioactivity is determined by a scintillation counter. Data are expressed as nmoles free fatty acid [oleic acid] releated.

[1] = 4-14C-cholesterol appearance in thoracic duct lymph of rats after oral administration; assay type: in vivo, female albino rats (Charles River); conditions: 100 mg orally, female albino rats, vs Na-TC control
Procedure: The lowering of the cholesterol levels in mammals by the administration of the compound of formula I-B can be seen from the fact that when 100 mg of 7-(3alpha, 12alpha-dihydroxy-5beta-pregnane-20-yl)-3,5-heptadienoic acid was administered orally to female albino rats, the cholesterol level in the lymph was decreased after administration by 60% over the first 8 hours and 91% over the next 9 to 24 hr. period after administration as compared to the control. In this procedure, female albino rats (Charles River), weighing 300 ± 10 g were kept on a Purina chow diet ad libitum until the time of operation. […] This preparation enabled the production of lymph at a constant rate, the infusion of a bile salt, and the simultaneous collection of bile. All animals received, after operation, a continuous duodenal infusion of sodium taurocholate (Na-TC) in 0.85% NaCl. One day after operation, the rats were given, by stomach intubation, an emulsion containing about 4% triolein, 20 μC of 4-^14 C-cholesterol (Specific Activity 61.7 mC/mM, 159 μ C/mg), 2 mg of cholesterol, in addition to protein, carbohydrate, and saline. Both the Na-TC and the cholesterol carrier employed gave a single spot on either thin layer or glass fiber chromatograph so no further purification was attempted. […] An aliquot of the lipid extract was placed on a small piece of glass fiber paper and counted. […]

C[C@H](C/C=C/C=C/CC(=O)O)[C@H]1CC[C@H]2[C@@H]3CC[C@@H]4C[C@H](O)CC[C@]4(C)[C@H]3C[C@H](O)[C@]12C [Compound A, 7(3α,12α-dihydroxy-5β-pregnane-20-yl)-3,5-heptadienoic acid]
Ki (rat pancreatic lipase): 1 mM | decrease of cholesterol level in the lymph as compared to the control ([1]; 9 to 24 hr. period after administration): 91% | decrease of cholesterol level in the lymph as compared to the control ([1]; over the first 8 hours after administration): 60%

CC(CCCCC(=O)O)[C@H]1CC[C@H]2[C@@H]3CC[C@@H]4C[C@H](O)CC[C@]4(C)[C@H]3C[C@H](O)[C@]12C (stereo partly drawn) [Compound B, 5-(3α,12α-dihydroxy-5βpregnane-20-yl)pentanoic acid]
Ki (rat pancreatic lipase): 9 mM
